Results taken from patent publication EP2213288A1 (Welte, Karl, priority 2009, dated 2010).

Key:
[1] = test system: promyelocytic leukemia cell line HL-60; experiment: Myeloid differentiation of HL-60 cells
Description: Granulocytic differentiation was characterized by FACS analysis of cells stained with antibody specific to CD16 (Immunotools), CD15 (BD Pharmigen) or CD11b (BD Pharmigen) and by morphological assessment of Wright-Giemsa-stained cytospin slides. […] We cultured HL-60 cells in the presence of 10 ng ml^-1 human rhG-CSF(Cell systems Biotechnoogy), 10 ng ml^-1 human rhNAMPT (Phoenix Pharmaceuticals) or 0.1µM ATRA (Sigma). For the measurement of NAD^+, 0.5 M ice-cold HClO4 was added to the cells, or cell culture supernatants or plasma; after 2 min, 100µl of supernatants was collected by centrifugation at 3,000g for 5 min, was 20µl K2HPO4 (1 M) added with cooling on ice and adjusted pH to 7.2-7.4 with KOH. 50µl of supernatant was given to the reaction mixture containing 0.1 M sodiumpyrophosphate-semicarbazid (Sigma) (pH 8.8), absolute ethanol and dH2O, NAD^+ spectrophotometrically was assessed at 339 nm at room temperature (25°C) as as mean difference in absorbance before (A1) and 6 min after (A2) addition of alcohol dehydrogenase (Roche).

CD34^+ cells = experiment: NAMPT inhibition (FK866) or G-CSFR knock-down in G-CSF- or NAMPT-stimulated CD34+ cells
Excerpt: NAMPT is induced by G-CSF, so it was further analyzed whether this enzyme is required for G-CSF-triggered granulopoiesis.
DNA oligonucleotides corresponding to position 642 bp to 660 bp of the human CSF3R gene sequence were chemically synthesized. These nucleotides also contained overhang sequences from a 5' BglII- and a 3'HindIII- restriction sites. The numbering of the first nucleotide of the shRNAs refers to the ATG start codon. The oligonucleotide sequences was as follows […] (Seq. ID No. 3). The oligonucleotides were inserted into the BglII/HindIII-digested pSUPER-derived plasmid to generate pSUPER-CSF3R_642 and verified the isolated clone by DNA sequencing. To generate lentiviral transgenic plasmids containing shRNA expression cassettes located in the U3 region of the […]3'-LTR pRRL,PPT.SF.DsRedEx.pre was used. pRRL.PPT.SF.DsRedEx.pre is a derivative of the standard lentiviral vector pRRL.PPT.PGK, DsRedEx.pre (kindly provided by Luigi Naldini, Milano, Italy) using an internal SFFV promoter. To generate the lentiviral CSF3R_642-SR plasmid, the pSUPER-CSF3R_642 was digested with SmaI and HincII and ligated the resulting DNA fragments (360 bp) into the SnaBI site of the pRRL.PPT.SF.DsRedEx,pre. The lentiviral plasmid encodes RFPEXPRESS as reporter gene.

[2] = test system: CD34^+ bone marrow progenitor cells from healthy individuals; experiment: Granulocytic/myeloid differentiation of cultured CD34+ cells from healthy individuals (FACS, qRT-PCR, ELISA, NAD+ measurement); assay type: cell-based, human; conditions: FACS analysis; nicotinamide 1 mM or 10 mM; lentiviral transduction MOI 1-2
Description: Bone marrow and peripheral blood mononuclear cells were isolated by Ficoll-Hypaque gradient centrifugation (Amersham Biosciences) and positively selected bone marrow CD34^+ and CD33^+ cells by sequential immunomagnetic labeling with corresponding magnetic cell-sorting beads (Miltenyi Biotech). Peripheral blood PMNs were isolated by Ficoll-Hypaque gradient centrifugation and by subsequent hypotonic lysis of erythrocytes in cell pellet, Cells were counted and viability was assessed by trypan blue dye exclusion. The purity of sorted CD34^+ cells, CD33^+ cells and PMNs was more than 96% as assessed by FACS analysis and by staining with May-Grünwald-Giemsa.
Purified PMNs and CD33^+ cells were cultured in RPMI-1640 medium supplemented with 1% heat-inactivated autologous human serum with or without addition of 10 ng ml^-1 of recombinant human G-CSF (rhG-CSF) (Cell Systems Biotechnology). […] For assessment of G-CSFR protein expression cells were stained with unconjugated antibody to mouse G-CSFR and secondary FITC-conjugated antibody and measured G-CSFR expression by FACS. […] G-CSF protein was measured by G-CSF-specific ELISA from R&D Systems and NAMPT protein by NAMPT specific carboxy-terminal enzyme immunometric assay (Phoenix Pharmaceuticals).

[3] = Treatment of healthy individuals with vitamin B3, blood cell analysis; assay type: in vivo, human
[4] = 25-50 mg kg^-1 d^-1, subjects with type 1 diabetes; cited from earlier work

Q: What does the source list for CC1=C(/C=C/C(C)=C/C=C/C(C)=C/C(=O)O)C(C)(C)CCC1 [ATRA, all-trans-retinoid acid]?
A: myeloid (granulocytic) differentiation of HL-60 cells ([1]; 10 ng ml^-1 rhG-CSF, 10 ng ml^-1 rhNAMPT or 0.1µM ATRA, or lentiviral transduction): differentiates into granulocytes; levels of iNAD^+ as well as mRNAs of SIRT1, C/EBPα and C/EBPβ ([1]; compared with untreated controls): Elevated levels

Q: What does the source list for O=C(/C=C/c1cccnc1)NCCCCC1CCN(C(=O)c2ccccc2)CC1 [FK866]?
A: cell viability and proliferation (CD34^+ cells; 1 nM FK866): no effect; G-CSF induction of C/EBPα or C/EBPβ mRNA expression and G-CSFR mRNA or protein expression (CD34^+ cells; NAMPT activity inhibited with FK866): unable to induce; G-CSF or iNAD^+ levels in G-CSF- or NAMPT-stimulated cells (CD34^+ cells; cells pretreated with FK866): no increase; G-CSF-triggered granulocytic differentiation (CD34^+ cells; pretreatment with 1 nM FK866, then G-CSF): substantially abrogated

Q: For NC(=O)c1cccnc1 [vitamin B3, nicotinamide], which “myeloid differentiation of CD34^+ cells” value [2] is on record?
A: induced myeloid differentiation of CD34^+ cells in a dose-dependent manner

Q: And the “increase in the neutrophilic granulocyte content” value ([3]; 10-20 mg kg^-1 d^-1, within 2 d)?
A: up to twofold

Q: And the “iNAD^+ levels in PMNs” value ([3]; compared with steady-state levels)?
A: Increased

Q: What about the “C/EBPα and C/EBPβ mRNA levels in bone marrow CD34^+ cells, CD33^+ cells and in peripheral blood PMNs” value ([3]; healthy individuals) of the same molecule?
A: upregulation

Q: What about the “CD34^+ hematopoietic progenitor cells in peripheral blood” value ([3]; healthy individuals) of the same molecule?
A: mobilisation

Q: And the “Other blood cell lineages” value ([3]; healthy individuals)?
A: unaffected

Q: What about the “decline of neutrophil numbers to the physiological level after discontinuation” value ([3]; healthy individuals) of the same molecule?
A: 2-3 d

Q: And the “time after initiation of treatment at which increased neutrophil numbers were detected” value ([3]; healthy individuals)?
A: 1 to 2 days

Q: What about the “numbers of neutrophilic granulocytes” value ([3]; six healthy individuals, 10 mg per kg per d for 1 week) of the same molecule?
A: significant increases

Q: What about the adverse effects ([3]; treated healthy individuals) of the same molecule?
A: no adverse effects

Q: And the side effects [4]?
A: no side effects
